Laboratory results from ChEMBL document CHEMBL1687934, “The discovery of potent and long-acting oral factor Xa inhibitors with tetrahydroisoquinoline and benzazepine P4 motifs” (Bioorg Med Chem Lett, 2011).

What was measured:
Format in all cases: ADME, organism-based
[1] = Plasma clearance in iv or po dosed Sprague-Dawley rat
[2] = Half life in iv or po dosed Sprague-Dawley rat; conditions: in vivo
[3] = Volume of distribution at steady state in iv or po dosed Sprague-Dawley rat; conditions: in vivo, read-out: Vdss
[4] = Oral bioavailability in Sprague-Dawley rat; conditions: in vivo

Row | SMILES | clearance [1] [mL/min/kg] | half-life [2] [h] | Vd [3] [L/kg] | bioavailability [4] [%]
1 | O=C1[C@@H](NS(=O)(=O)c2ccc3c(Cl)c[nH]c3c2)CCN1c1ccc2c(c1)CCNC2 | 7.7 | 6.3 | 2.9 | < 1
2 | O=C1[C@@H](NS(=O)(=O)c2ccc3c(Cl)c[nH]c3c2)CCN1c1ccc2c(c1F)CCNC2 | 2.7 | 7.8 | 1.5 | 7
3 | O=C1[C@@H](NS(=O)(=O)/C=C/c2ccc(Cl)s2)CCN1c1ccc2c(c1F)CCNC2 | 3 | 3.3 | 0.9 | 68
4 | O=C1[C@@H](NS(=O)(=O)c2ccc3cc(Cl)ccc3c2)CCN1c1cc2c(cc1F)CNCC2 | 1.7 | 7.5 | 1 | 28
5 | O=C1[C@@H](NS(=O)(=O)c2ccc3c(Cl)c[nH]c3c2)CCN1c1cc2c(cc1F)CNCC2 | 1.3 | 6.2 | 0.5 | 6
6 | O=C1[C@@H](NS(=O)(=O)/C=C/c2ccc(Cl)s2)CCN1c1ccc2c(c1)CCCNC2 | 7.8 | 4.4 | 2.6 | 45
7 | O=C1[C@@H](NS(=O)(=O)c2ccc3cc(Cl)ccc3c2)CCN1c1ccc2c(c1)CCNC2 | 4 | 11 | 3.6 | 24
8 | O=C1[C@@H](NS(=O)(=O)/C=C/c2ccc(Cl)s2)CCN1c1ccc2c(c1)CCNC2 | 3 | 3.5 | 0.9 | –
9 | CN[C@@H](C)c1ccc(N2CC[C@H](NS(=O)(=O)c3ccc4cc(Cl)ccc4c3)C2=O)c(F)c1 | 1.6 | 18 | 2.4 | > 10
10 | O=C1[C@@H](NS(=O)(=O)/C=C/c2ccc(Cl)s2)CCN1c1cc2c(cc1F)CNCC2 | 1.4 | 4.9 | 0.5 | 43
11 | CN1CCc2cc(N3CC[C@H](NS(=O)(=O)/C=C/c4ccc(Cl)s4)C3=O)ccc2C1 | 26 | 0.4 | 0.7 | 33
12 | O=C1[C@@H](NS(=O)(=O)c2ccc3cc(Cl)ccc3c2)CCN1c1ccc2c(c1F)CCNC2 | 2.1 | 6.7 | 2.4 | –
13 | O=C1[C@@H](NS(=O)(=O)c2ccc3cc(Cl)ccc3c2)CCN1c1ccc2c(c1)CCCNC2 | 6.8 | 9.7 | 5.5 | 10
14 | O=C1[C@@H](NS(=O)(=O)c2ccc3cc[nH]c3c2)CCN1c1ccc2c(c1)CCNC2 | 12 | 6.1 | 4.1 | < 1
